In patent US5989555A, “Extracts of Larrea tridentata having antiviral activity and their use for treating viral infections” (priority 1996, dated 1999):
Several values for one entry are separate records, joined by “and”; a condition that tells them apart may be missing. Identical values can stand only once.

Assays:
HIV-1 Tat protein = assay: cells; assay type: cell-based; settings: Table 3, samples run in duplicate, each value mean of two determinations; for inhibition at 10 µg/mL / inhibition at 30 µg/mL: Human immunodeficiency virus 1, COS; for inhibition at 10 µg/mL: read-out: % Inhibition of Tat Transactivation, 10 μg/ml; for inhibition at 30 µg/mL: read-out: % Inhibition of Tat Transactivation, 30 μg/ml
Method: […] P. Loeffler and J. P. Behr, Meth. Enzymol. 217:599 (1993)). Cells were incubated for 12-15 hours after transfection before the extract was added at the various concentrations noted. The cultures were incubated for 48 hours, after which 250 μl of the culture supernatant was assayed for SEAP activity as described in Example 4.
The SEAP Assay. The "SEcreted Alkaline Phosphatase" assay for Tat transactivation has been described previously (Berger et al., Gene 66:1-10, 1988; Bohan et al., Gene Expression 2(4):391-407, 1992). The details of the entire procedure for the SEAP inhibition assay as used herein have been described (Gnabre et al. Journal of Chromatography A 719:353-364 (1996)).
The secreted alkaline phosphatase analysis was performed as originally described by Berger et al. In this assay, a DNA expression vector wherein a structural gene encoding a secreted alkaline phosphatase is driven by an enhancer-linked promoter is transfected into target cells. The cells are then exposed to compounds which affect the binding/activation of the transcription regulatory proteins, and the amount of SEAP activity in the medium is measured.
As to the alkaline phosphatase assay, briefly, a 250-μl aliquot was removed from COS cell culture supernatants, heated at 65° C. for 5 minutes to selectively inactivate endogenous phosphatase (SEAP is heat stable) and centrifuged in a microfuge for 2 minutes. […] of 2×SEAP assay buffer (1.0 M diethanolamine, pH 9.8; 0.5 mM MgCl2; 10 mM L-homoarginine) was added to 100-μl aliquot of the samples. The solution was mixed and transferred into a 96-well flat-bottom culture dish (Corning). Twenty μl of pre-warmed substrate solution (120 mM p-nitrophenylphosphate dissolved in 1×SEAP assay buffer) were dispensed with a multipipeter into each well containing the reaction mixture. The A405 of the reaction was read at 5-minute intervals at 37° C. for 60 minutes using an EL340i microplate reader (Bio-tek Instruments, Inc.) with 5-second automatic shakings before each reading. The change in absorbance was plotted against time in the standard assay of SEAP induction. In the drug screening assay, the percent inhibition of SEAP expression was calculated at its 30 min endpoint as follows:
% Inhibition=100-[(CT^+ -C^+)/(CT^- -C^-)]×100
The 3-Magi extract was monitored by SiO2 TLC with cerium sulfate charring, 2% CeSO4 (w/V) in 5.6% H2 SO4 (v/v), and by the SEAP assay for anti Tat-TRS activity. For the SEAP assay, test materials were dissolved in 10% DMSO solution made in calcium-free, magnesium-free PBS (Ca--Mg-free PBS). The suspension was centrifuged and the stock solution (10 mg/ml) was filter-sterilized using a Millex-GS […] filter (Millipore). Appropriate dilutions of the stock solution were prepared in a final DMSO concentration of 0.2% in Ca--Mg-free PBS to obtain the various concentrations of test compounds.
The 3-Magi extract prepared as in Examples 1 and 2 was assayed by the SEAP assay for anti Tat-TRS activity. […] Briefly, a day before DNA transfection, Linbro® 24 flat bottom wells of 17-mm diameter plates were pretreated with 0.5 ml sterile solution of 0.1% gelatin. The plates were kept in a tissue culture hood for 1 hour (all transfection steps were performed in the hood, unless otherwise stated). The gelatin solution was aspirated and the plates were washed with 0.5 ml of Iscove's Modified Delbecco's Medium (IMDM) supplemented with 10% fetal calf serum and antibiotics (complete medium). COS cells were seeded at a density of ≈1.5×10^5 cells per 17-mm plate and incubated in a humidified 95% air/5% CO2 incubator at 37° C. DNA transfection was performed at 50-60% cell confluency.

HIV-LTR = assay: in vitro HIV gene transcription assay (Hela whole-cell extract, pLTR-1CAT template); assay type: biochemical, HIV-1; settings: for CPM of run off transcription: 329 nt run off, DMSO control 625; for % Transcription (% T): DMSO control = 100
Method: This procedure was utilized to test lignans from the creosote bush including Rev.10:7 lignans (FB3 and FB5).
The inhibitory activity of the lignans prepared by the large scale isolation described in FIG. 6 is shown. The activity of the cyclolignans FB3 and FB5 is highlighted. Compounds FB1, FB2 and FB4 were each tested at 100, 120, 140 μg/ml. Rev.10:7 lignans (FB3 and FB5) were tested only at 100, 120 μg/ml.
The DNA used as template was the plasmid pLTR-1CAT, which contains HIV-LTR (-453 to +126) fused to the prokaryotic chloramphenicol acetyltransferase (CAT) gene. Unlabeled nucleoside triphosphates were from Pharmacia, and [α-^32 P]UTP (400 Ci/mmol) from Amersham.
DNA digests were then subjected to twice phenol-chloroform-isoamyl alcohol […] extractions and subsequently precipitated by ethanol. Hela whole-cell extracts (Manley extract) containing the polymerase and the transcription factors was prepared as previously described (Manley et al., Proc. Acad. Sci. USA 77:3855-3859 (1988)).
The transcription assay has been previously described (Bohan et al., Gene Expression 2:391-407 (1992)). Extracts prepared by the method of Manley, described above, (40 μg/reaction) and DNA template (0.4 μg/reaction)were preincubated with 0.4 μl of various concentrations of test compounds for 15 min at 30° C. The in vitro transcription buffer of Manley extract contained 10 mM HEPES (pH 7.9), 50 mM KCl, 0.5 mM EDTA, 1.5 mM […], 6.25 mM MgCl2, and 8.5% glycerol. Unlabeled nucleoside triphosphates and [α-^32 P]UTP (400 Ci/mmol) were mixed and added to the reaction mixture. The final volume of the reaction was brought to 15 μl followed by 1 hour incubation at 30° C. as illustrated in FIG. 9.
The transcription reaction was terminated by addition of 300 μl of stop solution (20 mM tris-HCl (pH 7.8), 150 mM NaCl, and 0.2% SDS), and extracted with equal volume of phenol. RNA in the aqueous phase was precipitated with 2.5 volumes of EtOH and 0.1 volume of 3 M sodium acetate. Following centrifugation, RNA pellets were washed with EtOH, dried and resuspended in 15 μl of denaturation mix containing 50% formamide:50% of 2×TBE, Xylene cyanol and bromophenol blue. The mixture was heated at 90° C. for 3 min, and electrophoresed at 400 V in 4% polyacrylamide (19:1 acrylamide:bisacrylamide) gel containing 7 M urea (prerun at 200 V for 30 min) and 1×TBE. The gel was exposed to Kodak XR-5 film at -70° C. with intensifying screens for autoradiography. Table 4 illustrates the same results in numerical form after radioactivity counts of the 329 nt run off transcription spots.

[1] = 140 μg/ml, estimated from Kodak film of gel after 3 day exposure

| Compound | % Inhibition of Tat Transactivation (HIV-1 Tat protein; 30 μg/ml) | % Inhibitor (100 - % T) (HIV-LTR; 100 μg/ml) [%] | CPM of run off transcription (HIV-LTR; 100 μg/ml) [CPM] | % Transcription (% T) (HIV-LTR; 100 μg/ml) [%] | % Inhibitor (100 - % T) (HIV-LTR; 120 μg/ml) [%] | CPM of run off transcription (HIV-LTR; 120 μg/ml) [CPM] | % Transcription (% T) (HIV-LTR; 120 μg/ml) [%] | % Inhibition of Tat Transactivation (HIV-1 Tat protein; 10 μg/ml) [%] | inhibition at 10 µg/mL (HIV-1 Tat protein) [%] | inhibition at 30 µg/mL (HIV-1 Tat protein) [%] | % Inhibitor (100 - % T) (HIV-LTR; [1]) [%] |
| --- | --- | --- | --- | --- | --- | --- | --- | --- | --- | --- | --- |
| 3'-demethoxy-6-dehydroxy-8-O-demethoxylisoguaiacin [FB3] | 69% and 59% | 73 | 169 | 27 | 91 | 55 | 9 |  |  |  |  |
| COc1ccc(C[C@@H](C)[C@@H](C)Cc2ccc(O)c(O)c2)cc1O [FB1, 4'-O-methyl-NDGA] | 99% | 0 | 917 | 147 | 0 | 804 | 129 | 82 | 86 | 100 | > 50 |
| COc1cc(CC(C)C(C)Cc2ccc(O)c(O)c2)ccc1O (stereo not drawn) [FB2, 3'-O-methyl-NDGA] |  |  | 972 | 155 | 0 | 661 | 106 | 86 | 75 | 100 | > 90 |
| C[C@H]1[C@H](c2ccc(O)cc2)c2cc(O)c(O)cc2C[C@H]1C [FB5, 3'-demethoxy-6-O-demethoxylisoguaiacin] | 87% | 40 | 373 | 60 | 58 | 264 | 42 |  | 63 | 84 |  |
